Target: T1, Ape1-His6 (Campylobacter jejuni, UniProt A0A0H3PJ52)
T1 construct: gene CJJ81176_0638; predicted 21-residue signal peptide removed; C-terminal His6 tag (pET28a(+)), expressed in E. coli BL21(DE3)
Experiment: absorbance at […] nm, p-nitrophenol release
Format: biochemical
Conditions: 2 mM pNPAc; 50 mM sodium phosphate pH 6.5; room temperature

T1 sequence (A0A0H3PJ52 entry or part of it): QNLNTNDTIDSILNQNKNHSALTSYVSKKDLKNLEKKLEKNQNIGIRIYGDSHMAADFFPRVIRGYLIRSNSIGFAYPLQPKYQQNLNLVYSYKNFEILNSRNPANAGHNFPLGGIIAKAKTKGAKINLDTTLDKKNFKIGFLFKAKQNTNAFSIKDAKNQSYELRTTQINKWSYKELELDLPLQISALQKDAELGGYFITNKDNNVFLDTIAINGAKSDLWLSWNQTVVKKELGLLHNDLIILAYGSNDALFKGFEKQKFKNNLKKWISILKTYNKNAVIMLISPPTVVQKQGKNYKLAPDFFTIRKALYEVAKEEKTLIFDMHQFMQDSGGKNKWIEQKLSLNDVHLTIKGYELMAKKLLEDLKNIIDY

CC(=O)Oc1ccc([N+](=O)[O-])cc1 [p-nitrophenyl acetate]
absorbance at 405 nm, p-nitrophenol release: The specific activity of purified Ape1 was determined using p-nitrophenylacetate (pNPAc)
